In general, AC50 refers to the concentration giving half of the maximal activity seen. By IC50 is commonly meant the concentration needed to halve the response being measured. By EC50 is commonly meant the midpoint of the concentration-response curve.

Active and inactive are the calls of the source.

The target in assay [1] is T1, Microphthalmia-associated transcription factor (Homo sapiens, UniProt O75030).
T1 sequence (O75030 whole entry): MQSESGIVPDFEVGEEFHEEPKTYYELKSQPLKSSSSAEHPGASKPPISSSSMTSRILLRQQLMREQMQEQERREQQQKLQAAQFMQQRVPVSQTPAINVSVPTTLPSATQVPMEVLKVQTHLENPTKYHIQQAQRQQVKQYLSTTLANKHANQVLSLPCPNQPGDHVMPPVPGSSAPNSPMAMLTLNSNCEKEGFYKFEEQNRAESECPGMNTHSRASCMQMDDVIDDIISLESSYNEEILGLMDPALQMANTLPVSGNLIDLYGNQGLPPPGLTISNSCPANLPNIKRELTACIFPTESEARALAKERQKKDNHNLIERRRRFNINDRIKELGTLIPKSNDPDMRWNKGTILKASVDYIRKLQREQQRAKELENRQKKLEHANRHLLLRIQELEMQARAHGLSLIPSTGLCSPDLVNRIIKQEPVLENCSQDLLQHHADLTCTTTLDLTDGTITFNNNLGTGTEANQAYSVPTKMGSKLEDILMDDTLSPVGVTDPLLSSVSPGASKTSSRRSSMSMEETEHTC
Briefly: reducers of TRPM1 reporter luminescence, concentration series – cell-based, SK-MEL-5, cherry-picked, set 3, MITF inhibitor project, dose response (AID 493073).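 Note: SK-MEL-5 melanoma cells with luciferase driven by the MITF target TRPM1 promoter.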 The format is functional.

Assay [2] can be described thus: loss of viability in HepG2 cells – cell-based, CellTiter-Glo, cherry-picked, cytotoxicity control for Shn3 inhibitor project, dose response (AID 624134). The format is functional. For orientation: ATP-based viability assays read luminescence as a measure of living cells.
Assay [3] concerns the target T2, Beta Lactamase (Pseudomonas aeruginosa, UniProt Q932Y6). The assay is described as follows: BLA reporter interference, concentration series – BLA reporter cells, FRET fluorescence, artefact control for TLR9-MyD88 binding inhibitor project, dose response (AID 588341).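 Note: cell based assay in CHO-K1 cells stably expressing beta-lactamase.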 The assay is classed as cell-based.
A short description of assay [4]: non-specific 3'UTR reporter inhibition in Clone20-Shn3RL – cell-based, Renilla luciferase, cherry-picked, counter-screen for Shn3 inhibitor project, dose response (AID 624133). The assay is classed as functional. (A counterscreen serves to expose hits that act by an unwanted route or on another target.)
A short description of assay [5]: reduction of Shn3 3'UTR-driven luciferase in osteoblasts – cell-based, Clone20 osteoblasts, firefly luciferase, cherry-picked, dose response (AID 624132).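 Note: firefly luciferase luminescence from reporter carrying the Shn3 3'UTR in osteoblasts.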 The assay is classed as functional.
The next assay deals with T3, Galanin receptor type 3 (Homo sapiens, UniProt O60755).
T3 sequence (O60755 whole entry): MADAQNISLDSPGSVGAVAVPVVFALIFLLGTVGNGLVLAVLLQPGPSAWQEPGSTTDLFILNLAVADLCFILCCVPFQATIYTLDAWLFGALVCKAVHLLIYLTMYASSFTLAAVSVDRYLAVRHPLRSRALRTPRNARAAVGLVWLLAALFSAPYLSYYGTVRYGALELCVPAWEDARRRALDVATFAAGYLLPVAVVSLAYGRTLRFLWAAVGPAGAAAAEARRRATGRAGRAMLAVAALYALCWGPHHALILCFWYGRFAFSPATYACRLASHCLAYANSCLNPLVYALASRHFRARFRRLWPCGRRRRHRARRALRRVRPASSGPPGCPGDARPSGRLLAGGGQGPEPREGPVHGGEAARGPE
Briefly: Fluorescence-based cell-based primary high throughput dose response assay to identify antagonists of the Galanin Receptor 3 (GalR3). The assay is classed as functional.

Assay [6] is described as follows: Fluorescence-based cell-based high throughput dose response assay for inhibitors of the interaction of nucleotide-binding oligomerization domain containing 2 (NOD2) and the receptor-interacting serine-threonine kinase 2 (RIPK2). The format is functional. The note with it: Homo sapiens.
The target in assay [7] is DNA damage-inducible transcript 3 protein (Mus musculus, UniProt P35639). The format is functional, Cricetulus griseus.
DNA damage-inducible transcript 3 protein, sequence (P35639 whole entry): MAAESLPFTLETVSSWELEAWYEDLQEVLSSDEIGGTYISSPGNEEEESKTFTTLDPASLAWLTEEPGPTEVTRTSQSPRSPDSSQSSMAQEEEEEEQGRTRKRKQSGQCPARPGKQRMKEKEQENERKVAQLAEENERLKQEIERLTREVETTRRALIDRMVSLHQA
The nature of a further assay: cells. The assay is classed as functional, cell-based. The note with it: HEK-CNG.
In assay [8] the target is T2, Beta Lactamase. The assay is described as follows: BLA reporter interference, concentration series – BLA reporter cells, FRET fluorescence, artefact control for NOD2-RIPK2 interaction inhibitor project, dose response (AID 651552). The assay is classed as functional, cell-based.
In the next assay the test system is CHO. The assay is described as follows: CHO cell viability loss, potency – luminescence, cytotoxicity control for TLR9-MyD88 binding inhibitor project, dose response (AID 588339).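 Note: CHO cells stably coexpressing TLR9 and MyD88 fusions from primary screen; compound exposure lasted 48 hours before viability readout.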 The format is functional, cell-based, hamster. The note with it: Cricetulus griseus.
The target of the next assay is T4, Bcl-2-related protein A1 (Mus musculus, UniProt Q07440).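 Note: confirmatory dose–response counterscreen on Bfl-1, used to check hits from a UBC13 polyubiquitin inhibitor campaign.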
T4 sequence (Q07440 whole entry): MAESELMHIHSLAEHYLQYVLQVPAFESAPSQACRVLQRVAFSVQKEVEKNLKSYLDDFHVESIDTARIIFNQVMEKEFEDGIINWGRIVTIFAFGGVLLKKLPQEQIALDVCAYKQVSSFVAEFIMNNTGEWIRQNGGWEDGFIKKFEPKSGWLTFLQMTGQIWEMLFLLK
The format is functional.

For assay [9], the target named is T5, Ubiquitin-conjugating enzyme E2 N (Homo sapiens, UniProt P61088).
T5 sequence (P61088 whole entry): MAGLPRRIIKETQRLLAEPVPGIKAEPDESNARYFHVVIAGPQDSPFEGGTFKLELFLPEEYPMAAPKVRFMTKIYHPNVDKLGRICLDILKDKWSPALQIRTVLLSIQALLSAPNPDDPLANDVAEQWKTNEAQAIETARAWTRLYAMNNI
The assay is classed as functional.

The target in assay [10] is T5, Ubiquitin-conjugating enzyme E2 N. The format is functional. This is another data set of the same source.
Assay [11] deals with HEK293. The assay is described as follows: SAR analysis of compounds that are cytotoxic to HEK293 - Set 2. [Related pubchem assays (depositor defined):AID1575, AID1578, AID1849, AID2001, AID2333, AID2334, AID2335, AID2337, AID2800]. The assay is classed as functional, cell-based. The note with it: Homo sapiens.
In assay [12] the target is T6, Tumor necrosis factor (Homo sapiens, UniProt P01375). Briefly: analog potency on TNFa NF-kB signaling – cell-based, set 2, SAR follow-up (AID 2483). The format is functional.
T6 sequence (P01375 whole entry): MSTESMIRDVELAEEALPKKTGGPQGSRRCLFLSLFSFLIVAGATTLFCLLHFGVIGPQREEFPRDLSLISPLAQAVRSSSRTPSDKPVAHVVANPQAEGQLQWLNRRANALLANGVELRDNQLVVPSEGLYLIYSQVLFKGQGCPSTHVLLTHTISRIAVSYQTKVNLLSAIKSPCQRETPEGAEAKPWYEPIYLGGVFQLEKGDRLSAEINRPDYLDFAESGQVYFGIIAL
Assay [13] relates to HEK293. Briefly: cells. The format is functional, cell-based. The note with it: Homo sapiens.
The target of assay [14] is T7, Nucleotide-binding oligomerization domain-containing protein 2 (Homo sapiens, UniProt Q9HC29). Briefly: PubChem AID 2334. The assay is classed as functional.
T7 sequence (Q9HC29 whole entry, the tested form may be a part): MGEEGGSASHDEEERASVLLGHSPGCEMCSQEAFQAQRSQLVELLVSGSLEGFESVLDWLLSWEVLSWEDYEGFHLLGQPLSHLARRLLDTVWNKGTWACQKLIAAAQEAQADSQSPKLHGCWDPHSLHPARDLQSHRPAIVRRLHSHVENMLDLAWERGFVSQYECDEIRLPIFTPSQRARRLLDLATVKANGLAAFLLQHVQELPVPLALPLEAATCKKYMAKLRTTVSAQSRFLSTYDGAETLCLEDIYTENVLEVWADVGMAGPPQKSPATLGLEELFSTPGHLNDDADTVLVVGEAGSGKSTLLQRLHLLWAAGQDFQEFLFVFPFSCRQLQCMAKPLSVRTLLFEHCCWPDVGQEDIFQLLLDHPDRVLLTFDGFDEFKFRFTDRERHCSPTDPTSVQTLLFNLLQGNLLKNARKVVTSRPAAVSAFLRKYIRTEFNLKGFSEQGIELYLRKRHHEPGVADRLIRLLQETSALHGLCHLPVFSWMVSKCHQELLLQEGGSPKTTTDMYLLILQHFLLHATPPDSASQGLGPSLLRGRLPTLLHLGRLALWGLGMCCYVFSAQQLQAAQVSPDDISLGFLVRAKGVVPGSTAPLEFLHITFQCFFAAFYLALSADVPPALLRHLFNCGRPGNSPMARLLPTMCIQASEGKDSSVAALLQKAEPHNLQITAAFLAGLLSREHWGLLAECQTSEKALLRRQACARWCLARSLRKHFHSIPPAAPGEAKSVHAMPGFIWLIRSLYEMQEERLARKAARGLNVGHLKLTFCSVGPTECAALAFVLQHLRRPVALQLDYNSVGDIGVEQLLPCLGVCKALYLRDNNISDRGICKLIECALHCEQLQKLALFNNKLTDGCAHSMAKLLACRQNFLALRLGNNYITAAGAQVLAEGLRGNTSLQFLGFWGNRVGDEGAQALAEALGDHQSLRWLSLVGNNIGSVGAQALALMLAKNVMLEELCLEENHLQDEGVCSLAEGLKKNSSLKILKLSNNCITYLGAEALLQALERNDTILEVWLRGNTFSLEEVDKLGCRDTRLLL
Assay [15] deals with Transitional endoplasmic reticulum ATPase (Homo sapiens, UniProt P55072, C522A). The assay is described as follows: C522A mutant p97 ATPase inhibitors, dose response, counter-screen for p97 inhibitor project, biochemical, luminescence (AID 1544).
Transitional endoplasmic reticulum ATPase (Homo sapiens, UniProt P55072, C522A), sequence (P55072 2-806 C522A limits assumed): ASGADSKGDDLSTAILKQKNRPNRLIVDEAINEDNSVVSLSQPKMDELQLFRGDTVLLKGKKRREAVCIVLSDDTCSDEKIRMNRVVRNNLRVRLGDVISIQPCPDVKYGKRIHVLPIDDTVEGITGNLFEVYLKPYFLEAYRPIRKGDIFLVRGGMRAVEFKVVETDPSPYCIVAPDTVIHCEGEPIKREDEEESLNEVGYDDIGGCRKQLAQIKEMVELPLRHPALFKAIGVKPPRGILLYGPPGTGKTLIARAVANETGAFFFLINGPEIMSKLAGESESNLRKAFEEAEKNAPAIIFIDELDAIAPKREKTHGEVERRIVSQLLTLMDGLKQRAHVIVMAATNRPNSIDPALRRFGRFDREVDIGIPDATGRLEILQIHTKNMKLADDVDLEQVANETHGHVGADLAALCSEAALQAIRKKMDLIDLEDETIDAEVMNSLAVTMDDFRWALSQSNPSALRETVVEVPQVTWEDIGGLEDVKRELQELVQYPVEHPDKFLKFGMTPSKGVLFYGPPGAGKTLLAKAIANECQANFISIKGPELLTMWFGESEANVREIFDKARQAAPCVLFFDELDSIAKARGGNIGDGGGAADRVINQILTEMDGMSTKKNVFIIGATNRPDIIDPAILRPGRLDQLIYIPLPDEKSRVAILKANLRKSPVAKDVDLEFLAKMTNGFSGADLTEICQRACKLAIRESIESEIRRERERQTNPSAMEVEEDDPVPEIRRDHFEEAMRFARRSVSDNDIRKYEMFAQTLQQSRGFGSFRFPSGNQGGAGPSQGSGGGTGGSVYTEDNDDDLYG
Assay [16] has as its system HEK293. The assay is described as follows: inhibition of NOD1-driven NF-kB reporter – cell-based, luminescence, uHTS, primary screen (AID 1578). The assay is classed as functional. The note with it: Homo sapiens.
The target in assay [17] is T8, Nucleotide-binding oligomerization domain-containing protein 1 (Homo sapiens, UniProt Q9Y239).
T8 sequence (Q9Y239 whole entry): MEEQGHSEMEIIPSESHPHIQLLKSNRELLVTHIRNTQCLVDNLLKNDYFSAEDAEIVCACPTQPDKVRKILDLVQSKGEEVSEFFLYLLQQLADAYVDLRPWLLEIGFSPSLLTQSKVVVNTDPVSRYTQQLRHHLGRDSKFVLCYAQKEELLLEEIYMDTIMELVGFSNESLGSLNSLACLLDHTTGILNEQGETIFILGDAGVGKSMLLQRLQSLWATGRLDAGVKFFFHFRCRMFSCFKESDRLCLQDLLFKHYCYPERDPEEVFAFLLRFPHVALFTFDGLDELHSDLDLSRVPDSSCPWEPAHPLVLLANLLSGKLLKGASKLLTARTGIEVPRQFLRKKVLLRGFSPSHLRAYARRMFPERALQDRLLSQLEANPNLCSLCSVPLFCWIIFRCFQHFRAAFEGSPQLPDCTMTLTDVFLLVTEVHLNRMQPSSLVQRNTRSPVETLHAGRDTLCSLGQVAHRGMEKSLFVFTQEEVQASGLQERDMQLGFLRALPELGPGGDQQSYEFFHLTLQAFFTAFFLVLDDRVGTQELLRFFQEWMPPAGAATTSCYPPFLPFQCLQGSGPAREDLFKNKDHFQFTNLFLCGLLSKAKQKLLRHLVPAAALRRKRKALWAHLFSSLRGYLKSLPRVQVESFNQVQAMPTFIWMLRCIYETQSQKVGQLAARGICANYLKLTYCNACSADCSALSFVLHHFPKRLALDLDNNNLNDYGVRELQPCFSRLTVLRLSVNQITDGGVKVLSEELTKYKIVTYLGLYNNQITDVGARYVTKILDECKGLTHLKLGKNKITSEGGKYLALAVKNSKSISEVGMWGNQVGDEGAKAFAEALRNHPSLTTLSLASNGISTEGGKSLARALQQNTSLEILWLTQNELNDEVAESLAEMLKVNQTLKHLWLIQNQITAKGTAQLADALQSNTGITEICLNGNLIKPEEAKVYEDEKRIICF
The assay is described as follows: SAR analysis of compounds that inhibit NOD1 - Set 2. [Related pubchem assays (depositor defined):AID1566, AID1575, AID1578, AID1849, AID1852, AID2333, AID2335, AID2798]. The format is functional.

In assay [18] the test system is HEK293. Briefly: cells. The format is functional, cell-based. The note with it: Homo sapiens. This is another data set of the same source.
Assay [19] addresses T7, Nucleotide-binding oligomerization domain-containing protein 2. Briefly: inhibition of NOD2-driven NF-kB reporter – cell-based, luminescence, uHTS, HEK293 (AID 1566). The format is functional.
The test system of assay [20] is HEK293. The assay is described as follows: cells. The note with it: Homo sapiens.
In assay [21] the target is T7, Nucleotide-binding oligomerization domain-containing protein 2. The assay is described as follows: inhibition of NOD2 signaling – set 2, SAR follow-up (AID 2475). The format is functional.
Assay [22] has as its target T8, Nucleotide-binding oligomerization domain-containing protein 1. The assay is described as follows: blockers of NOD1 pathway activity – revised, SAR follow-up (AID 2333). The format is functional.
Assay [23] concerns the target Transitional endoplasmic reticulum ATPase (Homo sapiens, UniProt P55072). Briefly: p97 ATPase inhibitors, dose response, biochemical (AID 1534).
The target in assay [24] is T6, Tumor necrosis factor. Briefly: analog potency on TNFa NF-kB signaling – cell-based, revised, SAR follow-up (AID 2337). The assay is classed as functional.
The subject of assay [25] is HEK293. Briefly: NOD2 signaling inhibitors in MDP-stimulated cells, cell-based, uHTS, luminescence (AID 2001). The format is functional. The note with it: Homo sapiens.
The subject of assay [26] is HEK293. Briefly: cells. The assay is classed as functional, cell-based. The note with it: Homo sapiens. The source holds these as a separate data set.

T2 sequence (Q932Y6 whole entry): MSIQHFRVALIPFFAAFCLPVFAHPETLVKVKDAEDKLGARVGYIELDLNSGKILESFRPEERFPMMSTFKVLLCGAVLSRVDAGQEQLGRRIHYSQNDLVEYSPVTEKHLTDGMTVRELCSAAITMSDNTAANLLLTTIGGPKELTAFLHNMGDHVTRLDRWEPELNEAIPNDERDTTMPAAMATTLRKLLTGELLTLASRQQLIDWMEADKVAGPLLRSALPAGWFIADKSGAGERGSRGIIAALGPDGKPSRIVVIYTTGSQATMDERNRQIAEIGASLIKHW
Transitional endoplasmic reticulum ATPase (Homo sapiens, UniProt P55072), sequence (P55072 whole entry): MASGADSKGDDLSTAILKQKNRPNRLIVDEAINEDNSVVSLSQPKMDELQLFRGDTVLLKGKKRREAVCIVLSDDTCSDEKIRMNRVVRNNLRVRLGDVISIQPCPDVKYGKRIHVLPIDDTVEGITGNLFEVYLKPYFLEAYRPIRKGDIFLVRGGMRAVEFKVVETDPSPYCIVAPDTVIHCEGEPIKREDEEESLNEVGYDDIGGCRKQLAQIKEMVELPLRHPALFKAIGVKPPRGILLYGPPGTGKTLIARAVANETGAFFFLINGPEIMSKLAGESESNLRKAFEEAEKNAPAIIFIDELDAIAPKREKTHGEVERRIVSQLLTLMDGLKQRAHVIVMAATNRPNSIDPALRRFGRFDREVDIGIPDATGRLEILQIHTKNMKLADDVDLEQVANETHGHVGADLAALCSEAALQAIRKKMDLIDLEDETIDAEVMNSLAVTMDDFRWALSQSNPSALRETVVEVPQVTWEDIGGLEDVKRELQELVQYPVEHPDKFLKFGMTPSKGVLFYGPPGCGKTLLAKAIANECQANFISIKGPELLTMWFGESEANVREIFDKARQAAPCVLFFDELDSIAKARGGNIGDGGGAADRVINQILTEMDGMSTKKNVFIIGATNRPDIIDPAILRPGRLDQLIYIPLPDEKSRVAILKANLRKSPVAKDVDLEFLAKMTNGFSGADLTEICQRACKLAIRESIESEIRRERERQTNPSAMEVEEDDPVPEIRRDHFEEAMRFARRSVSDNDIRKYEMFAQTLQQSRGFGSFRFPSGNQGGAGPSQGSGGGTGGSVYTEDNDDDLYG

`CS(=O)(=O)c1nc(-c2ccc(F)cc2)cc(C(F)(F)F)n1`: the AC50 in assay [1] was 7.2 µM (active); in [2], 24.5 µM (active); in [4], 7.39 µM (active); in [5] it was 2.72 µM (active). Moreover, the IC50 at Beta Lactamase [3] was 27.4 µM (inactive); at Galanin receptor type 3, > 29.9 µM (inactive); in assay [6] it was 2.79 µM (active); on Beta Lactamase [8], 17.7 µM (inactive); in the assay on CHO, 3.27 µM (active). Moreover, the “Absolute IC50 (CHOP)” value in assay [7] amounted to 10 µM. Besides, in “cells”, the EC50 was > 29.9 µM (inactive).

`CCCCN(CC)CCNC(=O)c1cc2c(=O)n(CC)c3ccccc3c2s1`: the IC50 was > 20 µM (inactive) on Bcl-2-related protein A1, 18.1 µM (active) in assay [9] and 5.26 µM (active) in [10].

Consider `Cc1ccc(C)c(SCC(=O)OC/C(O)=C(\C#N)c2nc3ccccc3[nH]2)c1`, for which the IC50 in the assay with HEK293 [11] is > 20 µM (inactive); at Tumor necrosis factor [12], > 20 µM (inactive); with HEK293 [13] it was > 20 µM (inactive); in assay [14] it was > 20 µM (inactive); in assay [15], > 50 µM (not active); in assay [17] it was 4.55 µM (active). Besides, the IC50 was > 20 µM (inactive) in the assay with HEK293 [18]; > 20 µM (inactive) in the assay with HEK293 [20]; 4.21 µM (active) in [21]; > 20 µM (inactive) in [22]; > 50 µM (not active) in assay [23]; > 20 µM (inactive) on Tumor necrosis factor [24]. The IC50 is 4.92 µM (inactive) with HEK293 [25] and > 20 µM (inactive) with HEK293 [26]. In addition, the EC50 (with HEK293 [16]; in assay [19]) was > 20 µM (inactive) each time.

These data come from ChEMBL document CHEMBL1201862, “PubChem BioAssay data set” (2004).
